Measurements published in patent US11680056B2, “MK2 inhibitors and uses thereof” (Xinthera, Inc., priority 2021, dated 2023).

Assays:
[1] = biological target: p38a/MK2 (Homo sapiens (Human), UniProt P49137+Q16539); experiment: p38a/MK2 biochemical assay: activation of MK2 by p38, FITC-HSP27 peptide phosphorylation (IMAP FP); details: 10-point 1:3 dilution, top dose 1 μM; 60 pM active p38a, 1 nM inactive MK2, 10 μM ATP, 2 h incubation; read-out: p38a/MK2 (1 μM) Enzyme pIC50 (converted)
[2] = biological target: p38a/PRAK (Homo sapiens (Human), UniProt Q16539); experiment: p38a/PRAK biochemical assay: activation of PRAK by p38, FITC-HSP27 peptide phosphorylation (IMAP FP); details: 10-point 1:3 dilution, top dose 300 μM; 60 pM active p38a, 1 nM inactive PRAK, 10 μM ATP, 2 h incubation; read-out: p38a/PRAK Enzyme pIC50 (converted)
p38a/PRAK, sequence (Q16539 whole entry): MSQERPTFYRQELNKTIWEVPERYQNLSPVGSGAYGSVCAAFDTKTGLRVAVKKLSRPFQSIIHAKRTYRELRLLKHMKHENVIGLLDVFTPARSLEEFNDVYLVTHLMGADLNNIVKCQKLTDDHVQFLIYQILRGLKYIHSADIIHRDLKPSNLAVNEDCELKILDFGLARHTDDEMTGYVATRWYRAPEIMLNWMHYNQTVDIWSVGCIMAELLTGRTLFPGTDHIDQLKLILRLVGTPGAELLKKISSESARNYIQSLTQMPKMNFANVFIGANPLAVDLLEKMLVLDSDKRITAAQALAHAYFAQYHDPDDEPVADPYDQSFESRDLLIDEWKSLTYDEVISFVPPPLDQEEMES
In short: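 GST-tagged MK2 (F46–H400) and PRAK (M1–Q471), expressed in E. coli, activated by p38 and phosphorylate FITC-HSP27 peptide over 2 h with compound; readout by IMAP fluorescence polarisation (ex 485/em 528 nm). Ten-point 1:3 dilutions, top dose 1 μM for MK2 and 300 μM for PRAK. IC50 after vehicle normalisation; selectivity = IC50(PRAK)/IC50(MK2).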

p38a/MK2, sequence (P49137 46-400): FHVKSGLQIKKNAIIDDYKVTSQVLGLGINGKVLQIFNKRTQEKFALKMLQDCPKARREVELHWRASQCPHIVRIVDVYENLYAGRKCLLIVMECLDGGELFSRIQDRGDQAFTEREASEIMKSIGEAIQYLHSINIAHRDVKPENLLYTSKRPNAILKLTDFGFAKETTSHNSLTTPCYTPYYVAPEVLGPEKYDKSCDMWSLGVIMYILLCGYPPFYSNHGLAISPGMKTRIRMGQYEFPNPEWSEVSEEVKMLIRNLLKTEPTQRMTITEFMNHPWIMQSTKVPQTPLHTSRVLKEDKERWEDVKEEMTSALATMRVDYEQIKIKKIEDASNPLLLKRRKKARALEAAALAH
p38a/MK2, sequence (Q16539 whole entry): as the sequence (Q16539 whole entry) above

| IC50 [1] [nM] | IC50 [2] [nM] | Structure (SMILES) |
| --- | --- | --- |
| > 1000 | > 316000 | Cc1cnc(-n2ccc(C(C)(C)O)n2)c(C)c1-n1c(C)cc(OCc2ncc(F)cc2F)c(Cl)c1=O (single isomer, unassigned) [Example 50B, rel-3-chloro-4-[(3,5-difluoropyridin-2-yl)methoxy]-2′-[3-(2-hydroxypropan-2-yl)pyrazol-1-yl]-3′,5′,6-trimethyl-[1,4′-bipyridin]-2-one] |
| 79.4 | 5010 | Cc1cnc(-c2cncc(C(C)(C)O)n2)cc1-n1c(C)cc(OCc2ncc(F)cc2F)c(Cl)c1=O (single isomer, unassigned) [Example 51A, rel-3-chloro-4-[(3,5-difluoropyridin-2-yl)methoxy]-2′-[6-(2-hydroxypropan-2-yl)pyrazin-2-yl]-5′,6-dimethyl-[1,4′-bipyridin]-2-one] |
| > 1000 | > 316000 | Cc1cnc(-c2cncc(C(C)(C)O)n2)cc1-n1c(C)cc(OCc2ncc(F)cc2F)c(Cl)c1=O (single isomer, unassigned) [Example 51B, rel-3-chloro-4-[(3,5-difluoropyridin-2-yl)methoxy]-2′-[6-(2-hydroxypropan-2-yl)pyrazin-2-yl]-5′,6-dimethyl-[1,4′-bipyridin]-2-one] |
| > 1000 | > 316000 | Cc1c(-n2c(C)cc(OCc3ncc(F)cc3F)c(Cl)c2=O)ccnc1-n1ccc(C(C)(C)O)n1 (single isomer, unassigned) [Example 52A, rel-3-chloro-4-((3,5-difluoropyridin-2-yl)methoxy)-2′-(3-(2-hydroxypropan-2-yl)-1H-pyrazol-1-yl)-3′,6-dimethyl-2H-[1,4′-bipyridin]-2-one] |
| 15.8 | 25100 | Cc1c(-n2c(C)cc(OCc3ncc(F)cc3F)c(Cl)c2=O)ccnc1-n1ccc(C(C)(C)O)n1 (single isomer, unassigned) [Example 52B, rel-3-chloro-4-((3,5-difluoropyridin-2-yl)methoxy)-2′-(3-(2-hydroxypropan-2-yl)-1H-pyrazol-1-yl)-3′,6-dimethyl-2H-[1,4′-bipyridin]-2-one] |
| > 1000 | > 316000 | Cc1cnc(-c2ccnc(C(C)(C)O)n2)c(F)c1-n1c(C)cc(OCc2ncc(F)cc2F)c(Cl)c1=O (single isomer, unassigned) [Example 53A, rel-3-chloro-4-[(3,5-difluoropyridin-2-yl)methoxy]-3′-fluoro-2′-[2-(2-hydroxypropan-2-yl)pyrimidin-4-yl]-5′,6-dimethyl-[1,4′-bipyridin]-2-one] |
| 0.126 | 794 | Cc1cnc(-c2ccnc(C(C)(C)O)n2)c(F)c1-n1c(C)cc(OCc2ncc(F)cc2F)c(Cl)c1=O (single isomer, unassigned) [Example 53B, rel-3-chloro-4-[(3,5-difluoropyridin-2-yl)methoxy]-3′-fluoro-2′-[2-(2-hydroxypropan-2-yl)pyrimidin-4-yl]-5′,6-dimethyl-[1,4′-bipyridin]-2-one] |
| > 1000 | > 316000 | Cc1cnc(-n2ccc(C(C)(C)O)n2)c(F)c1-n1c(C)cc(OCc2ncc(F)cc2F)c(Cl)c1=O (single isomer, unassigned) [Example 54A, rel-3-chloro-4-((3,5-difluoropyridin-2-yl)methoxy)-3′-fluoro-2′-(3-(2-hydroxypropan-2-yl)-1H-pyrazol-1-yl)-5′,6-dimethyl-2H-[1,4′-bipyridin]-2-one] |
| 0.631 | 1580 | Cc1cnc(-n2ccc(C(C)(C)O)n2)c(F)c1-n1c(C)cc(OCc2ncc(F)cc2F)c(Cl)c1=O (single isomer, unassigned) [Example 54B, rel-3-chloro-4-((3,5-difluoropyridin-2-yl)methoxy)-3′-fluoro-2′-(3-(2-hydroxypropan-2-yl)-1H-pyrazol-1-yl)-5′,6-dimethyl-2H-[1,4′-bipyridin]-2-one] |
| 1.26 | 794 | [2H]C([2H])(Oc1cc(C)n(-c2c(C)cnc(-c3ccnc(C(C)(C)O)n3)c2F)c(=O)c1Cl)c1ncc(F)cc1F (single isomer, unassigned) [Example 57A, rel-3-chloro-4-[(3,5-difluoropyridin-2-yl)(2H2)methoxy]-3′-fluoro-2′-[2-(2-hydroxypropan-2-yl)pyrimidin-4-yl]-5′,6-dimethyl-[1,4′-bipyridin]-2-one] |
| > 10 | 126000 | [2H]C([2H])(Oc1cc(C)n(-c2c(C)cnc(-c3ccnc(C(C)(C)O)n3)c2F)c(=O)c1Cl)c1ncc(F)cc1F (single isomer, unassigned) [Example 57B, rel-3-chloro-4-[(3,5-difluoropyridin-2-yl)(2H2)methoxy]-3′-fluoro-2′-[2-(2-hydroxypropan-2-yl)pyrimidin-4-yl]-5′,6-dimethyl-[1,4′-bipyridin]-2-one] |
| > 1000 | > 316000 | [2H]C([2H])(Oc1cc(C)n(-c2c(C)cnc(-c3ccnc(C(C)(C)CO)n3)c2F)c(=O)c1Cl)c1ncc(F)cc1F (single isomer, unassigned) [Example 59A, rel-3-chloro-4-((3,5-difluoropyridin-2-yl)methoxy-d2)-3′-fluoro-2′-(2-(1-hydroxy-2-methylpropan-2-yl)pyrimidin-4-yl)-5′,6-dimethyl-2H-[1,4′-bipyridin]-2-one] |
| 1 | 316 | [2H]C([2H])(Oc1cc(C)n(-c2c(C)cnc(-c3ccnc(C(C)(C)CO)n3)c2F)c(=O)c1Cl)c1ncc(F)cc1F (single isomer, unassigned) [Example 59B, rel-3-chloro-4-((3,5-difluoropyridin-2-yl)methoxy-d2)-3′-fluoro-2′-(2-(1-hydroxy-2-methylpropan-2-yl)pyrimidin-4-yl)-5′,6-dimethyl-2H-[1,4′-bipyridin]-2-one] |
| > 100 | 158000 | [2H]C([2H])(Oc1cc(C)n(-c2c(C)cnc(-c3ccnc(CC4(O)CC4)n3)c2F)c(=O)c1Cl)c1ncc(F)cc1F (single isomer, unassigned) [Example 61A, rel-3-chloro-4-((3,5-difluoropyridin-2-yl)methoxy-d2)-3′-fluoro-2′-(2-((1-hydroxycyclopropyl)methyl)pyrimidin-4-yl)-5′,6-dimethyl-2H-[1,4′-bipyridin]-2-one] |
| 3.16 | 631 | [2H]C([2H])(Oc1cc(C)n(-c2c(C)cnc(-c3ccnc(CC4(O)CC4)n3)c2F)c(=O)c1Cl)c1ncc(F)cc1F (single isomer, unassigned) [Example 61B, rel-3-chloro-4-((3,5-difluoropyridin-2-yl)methoxy-d2)-3′-fluoro-2′-(2-((1-hydroxycyclopropyl)methyl)pyrimidin-4-yl)-5′,6-dimethyl-2H-[1,4′-bipyridin]-2-one] |
| 1.58 | 794 | Cc1cnc(-c2cccc(C(C)(C)O)[n+]2[O-])c(F)c1-n1c(C)cc(OCc2ncc(F)cc2F)c(Cl)c1=O (single isomer, unassigned) [Example 62A, rel-3-chloro-4-((3,5-difluoropyridin-2-yl)methoxy)-3′-fluoro-6″-(2-hydroxypropan-2-yl)-5′,6-dimethyl-2-oxo-2H-[1,4′:2′,2″-terpyridine] 1″-oxide] |
